{"source": "patent US7384959B2", "about": "“Treatment of convulsive states” (priority 1999, dated 2008)", "key": {"[1]": {"settings": "after intravenous dosing; Ding et al 1997; cited from earlier work"}, "[2]": {"target": "cytochrome P450 sub-type 2D6 (Homo sapiens, UniProt P10635)", "sequence (P10635 whole entry)": "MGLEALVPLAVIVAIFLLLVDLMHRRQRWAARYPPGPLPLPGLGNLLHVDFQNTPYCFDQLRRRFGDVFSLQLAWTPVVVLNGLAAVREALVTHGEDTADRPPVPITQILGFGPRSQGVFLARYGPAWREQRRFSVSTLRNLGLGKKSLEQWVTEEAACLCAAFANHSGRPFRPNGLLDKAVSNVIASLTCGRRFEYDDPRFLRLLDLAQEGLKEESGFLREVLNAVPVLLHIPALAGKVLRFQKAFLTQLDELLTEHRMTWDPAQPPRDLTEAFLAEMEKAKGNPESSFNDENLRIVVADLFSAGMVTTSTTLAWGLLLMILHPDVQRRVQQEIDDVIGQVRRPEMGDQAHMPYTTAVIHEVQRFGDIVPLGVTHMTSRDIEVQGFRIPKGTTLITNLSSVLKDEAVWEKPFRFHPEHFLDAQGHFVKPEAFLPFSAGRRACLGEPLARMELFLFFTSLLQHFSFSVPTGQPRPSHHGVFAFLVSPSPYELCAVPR", "test": "effect on cytochrome P450 activity", "format": "in vitro ADME", "settings": "some inhibition at very high doses", "protocol": "(§1) At very high doses, some inhibition of cytochrome P450 sub-types C8/9, 2C18/19 and 2D6 was found, but the concentrations required to inhibit enzyme activities (100 μM) were much greater than the maximum concentrations likely to be found in vivo and are therefore not likely to be clinically relevant."}, "[3]": {"system": "cytochrome P450 sub-type 2C18/19", "test": "effect on cytochrome P450 activity", "format": "in vitro ADME", "settings": "some inhibition at very high doses", "protocol": "as §1"}}}
{"smiles": "COC(=O)[C@@H](c1ccccc1)[C@@H]1CCCCN1", "note": "[l-MPH, l-threo-Methylphenidate]", "values": [{"measurement": "detection in the brain", "setting": "[1]", "result": "detected in the brain"}, {"measurement": "concentration required to inhibit enzyme activity, cytochrome P450 sub-type 2D6", "setting": "[2]", "result": 100, "unit": "µM"}, {"measurement": "concentration required to inhibit enzyme activity, cytochrome P450 sub-type 2C18/19", "setting": "[3]", "result": 100, "unit": "µM"}]}
